How the values were obtained:
Assay type in all cases: cell-based, human
MCF-7 cells = assay: Crystal violet cellular proliferation assay; settings: MCF-7 (wild type p53, ER-positive); 100 μg/mL
Description: (§1) Human breast cancer cell lines MDA MB-231, MDA MB-436, MD MB-468, SKBR-3 and MCF-7 were obtained from the Lombardi Comprehensive Cancer Center (LCC) Tissue Culture Shared Resource. MDA MB-231, MDA MB-436, MD MB-468 and SKBR-3 are p53-mutated estrogen receptor (ER)-negative cells. MDA MB-231 also contains a mutation in the K-ras oncogene. The MCF-7 cell line is ER-positive and non-mutated for p53. The cells were grown in complete media containing DMEM (Gibco-BRL, Gaithersburg, Md.) supplemented with 10% fetal bovine serum (FBS) (Quality Biological, Gaithersburg, Md.). In addition, media for MCF-7 contained non essential amino acids (Gibco-BRL, Gaithersburg, Md.).
(§2) One×10^3 cells per well were seeded in 96 well dishes (Coming Costar, Cambridge, Mass.). Primary cultures of HMECs, A1N4 and 184B5 cells were evaluated at two different cell densities (seeded at 1×10^3 and 2×10^3 per well). After 24 hours of cell attachment, cells in triplicate wells were treated with pentamer at a concentration of 100 μg/mL. The cells on the same plate were treated with corresponding controls: (i) media containing DMSO, and (ii) media with no additions.
(§3) Cells were treated for 1, 2, 3, 6, 8 and 10 days, but in some cases, the samples were collected at days 2, 3, 4, 7 and 10 post-treatment. Each treatment was conducted in triplicate. Samples were collected at each time point as follows: media was removed and 50 μL of crystal violet solution (0.1% of crystal violet in 0.1 M citric acid solution) was added to each well at room temperature and plates were incubated for 15 minutes, followed by washing with deionized water. Plates were dried at room temperature overnight. The following day, plates were destained by adding 100 μL of 0.1 M sodium citrate solution into each well. Plates were incubated for one hour. The optical density (OD) of samples was read at 550 nm on an Ultramark Microplate Imagining System (BioRad, Philadelphia, Pa.). The experiment was repeated twice resulting in an average of nine measurements per sample. Statistical significance was determined using the t test analysis.

MDA MB-231 cells = assay: Crystal violet cellular proliferation assay; settings: 100 μg/mL, ten days after treatment
Description: as §1, §2, §3

SKBR-3 cells = assay: Crystal violet cellular proliferation assay; settings: 100 μg/mL, ten days after treatment
Description: as §1, §2, §3

MDA MB-468 cells = assay: Crystal violet cellular proliferation assay; settings: 100 μg/mL, ten days after treatment
Description: as §1, §2, §3

MDA MB-436 cells = assay: Crystal violet cellular proliferation assay; settings: 100 μg/mL, ten days after treatment
Description: as §1, §2, §3

PKC-δ at Ser643 = assay: LPS multi-well plate phosphorylation screen in MDA MB-231 cells; settings: 100 μg/mL
Source text: (§4) Layered Protein Scanning (LPS) is a method for screening liquid protein samples in a high throughput manner using multi-well plates [Englert, C. R. et al., Cancer Res., 60: 1526-1530, 2000], and conducted by 20/20 Gene Systems, Inc., (Rockville, Md.). In short, cells are lysed and protein extract loaded into the wells of vacuum manifold and transferred through a stack of membranes. From each set of samples, up to five dot blot membranes are generated.
(§5) MDA MB-231 human breast cancer cells were treated, with or without 100 μg/mL pentamer, for 48 and 72 hours. Cells were lysed in LPS/MWP lysis buffer (20/20 Gene Systems, Inc.). Protein concentration was determined using BCA Protein Assay Kit (Pierce, Rockford, Ill.). Ten and 20 μg of each protein sample was loaded in duplicate onto Bio-Dot Microfiltration Apparatus (BioRad, Philadelphia, Pa.) and transferred through a 5-membrane stack as recommended by the manufacturer (20/20 Gene Systems). After the transfer, all of the membranes were biotinylated in 1 mg/mL EZ-Link Sulfo-NHS-Biotin solution in 1×PBS for 10 minutes at room temperature (Pierce).
(§6) Membranes were incubated overnight at 4° C. with the antibodies shown in Table 1 (1:500 or 1:1000 dilution). The following day, membranes were washed in Tris-buffered saline with Tween 20 (0.1%) (TBST buffer) and incubated for 60 minutes at room temperature in a mixture of FluoroLink Cy 5-labeled Streptavidin (1:500, Amersham) and Fluorescein-labeled secondary anti-mouse or anti-rabbit antibody (1:2,000, Molecular Probes, Eugene, Oreg.), followed by washes in TBST. Membranes were dried and scanned on a Typhoon scanner (Amersham), and obtained images were analyzed with InageQuant software (Amersham). Data were plotted in Excel and statistically analyzed in JMP (SAS Institute, Inc., Cary, N.C.). Hierarchical clustering analysis was performed to evaluate segregation of samples into control and treated groups.

PKC-θ at Ser 643/676 = assay: as above; settings: 100 μg/mL, 72 hrs
Source text: as §4, §5, §6

[1] = system: SAPK/JNK at Thr183/Tyr185; assay: as above; settings: 100 μg/mL
Source text: as §4, §5, §6

FKHR (Ser256) = assay: as above; settings: 100 μg/mL, 72 hours, densitometry vs control
Source text: as §4, §5, §6

[2] = system: pRb at Ser 795 and Ser807/811; assay: as above; settings: 100 μg/mL
Source text: as §4, §5, §6

Cdc2 (Tyr15) = assay: as above; settings: 100 μg/mL, densitometry vs control
Source text: as §4, §5, §6

p53 = assay: as above; settings: 100 μg/mL
Source text: as §4, §5, §6

Stat 5 at Tyr 694 = assay: as above; settings: 100 μg/mL
Source text: as §4, §5, §6

Oc1cc(O)c2c(c1)O[C@H](c1ccc(O)c(O)c1)[C@H](O)[C@H]2c1c(O)cc(O)c2c1O[C@H](c1ccc(O)c(O)c1)[C@H](O)[C@H]2c1c(O)cc(O)c2c1O[C@H](c1ccc(O)c(O)c1)[C@H](O)[C@H]2c1c(O)cc(O)c2c1O[C@H](c1ccc(O)c(O)c1)[C@H](O)[C@H]2c1c(O)cc(O)c2c1O[C@H](c1ccc(O)c(O)c1)[C@H](O)C2 [pentamer, pentameric procyanidin]
growth inhibition (MCF-7 cells): 5.6 fold
growth inhibited, in comparison to DMSO-treated controls (MDA MB-231 cells): 5 fold
growth inhibited, in comparison to DMSO-treated controls (SKBR-3 cells): 5.5 fold
growth inhibited, in comparison to DMSO-treated controls (MDA MB-468 cells): 4 fold
growth inhibited, in comparison to DMSO-treated controls (MDA MB-436 cells): 4.1 fold
phosphorylation of PKC-δ at Ser643 decreased (PKC-δ at Ser643; 48 hrs): 22%
phosphorylation of PKC-δ at Ser643 decreased (PKC-δ at Ser643; 72 hrs): 49%
phosphorylation of PKC-θ at Ser 643/676 decreased (PKC-θ at Ser 643/676): 49%
phosphorylation of SAPK/JNK at Thr183/Tyr185 decreased ([1]; 48 hrs): 34%
phosphorylation of SAPK/JNK at Thr183/Tyr185 decreased ([1]; 72 hrs): 26%
phosphorylation of FKHR (Ser256) decreased (FKHR (Ser256)): 63%
phosphorylation of pRb at Ser 795 and Ser807/811 decreased ([2]; 48 hrs): 36%
phosphorylation of pRb at Ser 795 and Ser807/811 decreased ([2]; 72 hrs): 40%
phosphorylation of Cdc2 (Tyr15) decreased (Cdc2 (Tyr15); 48 hrs): 31%
phosphorylation of Cdc2 (Tyr15) decreased (Cdc2 (Tyr15); 72 hrs): 45%
phosphorylation of p53 residues Ser6, Ser9, Ser20 and Ser15 (p53; LPS): not significantly affected
phosphorylation of p53 (antibody mix at Ser37, 46 and 392) decreased (p53; post treatment, densitometry vs control): 36%
Stat 5 phosphorylation at Tyr 694 decreased (Stat 5 at Tyr 694; 48 hrs): 28%
Stat 5 phosphorylation at Tyr 694 decreased (Stat 5 at Tyr 694; 72 hrs): 33%

Source: patent US7371776B2, “Methods and compositions for treating cancer” (Mars, Incorporated, priority 2004, dated 2008)
